The results in this text go back to patent publication US20150119251A1, “AGRICULTURAL PLANT-PROTECTING AGENTS CONTAINING DIPEPTIDE DERIVATIVE AS ACTIVE INGREDIENT” (REPUBLIC OF KOREA (RURAL DEVELOPMENT ADMINISTRATION), priority 2012, published 2015).

This assay deals with tobacco bacterial rot (Pectobacterium carotovorum). As to the kind of experiment: Suppression of tobacco bacterial rot. It counts as in vivo, Pectobacterium carotovorum SCC1. On the procedure:
A tobacco or cucumber was sown in a plastic pot with a diameter of 10 cm×13 cm, and then, 12 pots were added in a yellow box. After seeding, 100 μL was inoculated to the cotyledons of cucumber or tobacco, in which first leaf was started to come out. The test compounds were dissolved in 20% methanol to make a stock solution, and then, the stock solution was diluted to the concentrations of 1, 10, and 100 ppm.
After 7 days, the pathogen of a plant bacterial rot (Pectobacterium carotovorum SCC1) was cultured in a TSA medium for 27 hours; and then, the cultured pathogen was sprayed in a concentration of 10^8 cfu/mL to the plant leaves, and cultured at 30° C. for 3 days. The plant anthracnose germ (Colletotrichum orbiculare) was cultured in a GBA (Green bean agar) medium to induce spores for about 2 to 3 weeks. The germ was sprayed in a concentration of 10^5 cell/mL and then cultured at 26° C. for 1 day. When fourth or fifth leaf came out, 200 μL of each of the test compounds was inoculated to third leaf. After 7 days, the pathogen of the plant bacterial rot was sprayed to the plant leaves in the concentration of 10^8 cfu/mL, and then cultured at 30° C. for 3 days.
The investigation was performed with naked eyes, and the lesion relative areas were investigated until 0 to 100% according to the shortness degrees of the bacterial rot. The anthracnose was investigated by counting the number of lesions occurred on the leaves.

Each structure is given as a SMILES string. Peptide text beside a SMILES is read from it. * marks the point of attachment. Boc = CC(C)(C)OC(=O)*

Take `COC(=O)[C@H](CC(C)C)NC(=O)[C@H](CO)NC(=O)OC(C)(C)C` [Compound 1] (Boc-Ser-Leu-OMe): the Lesion outbreak rate runs as follows: (Table 3, tobacco, 1 ppm) 73%; (Table 3, tobacco, 10 ppm) 10%; (Table 3, tobacco, 100 ppm) 57%.

Consider `COC(=O)[C@H](CC(C)C)NC(=O)[C@@H](N)CO` [Compound 2] (H-Ser-Leu-OMe), for which the Lesion outbreak rate is, setting by setting: (Table 3, tobacco, 1 ppm) 60%; (Table 3, tobacco, 10 ppm) 39%; (Table 3, tobacco, 100 ppm) 41%.

Take `COC(=O)CNC(=O)[C@H](CC(C)C)NC(=O)OC(C)(C)C` [Compound 3] (Boc-Leu-Gly-OMe): the Lesion outbreak rate runs as follows: (Table 3, tobacco, 1 ppm) 13%; (Table 3, tobacco, 10 ppm) 68%; (Table 3, tobacco, 100 ppm) 80%.

Regarding `CCOC(=O)[C@H](C)NC(=O)[C@H](CC(C)C)NC(=O)OC(C)(C)C` [Compound 9] (Boc-Leu-Ala-OEt), the Lesion outbreak rate (Table 3, tobacco, 1 ppm) is given as 90%; the Lesion outbreak rate (Table 3, tobacco, 10 ppm) was found to be 53%; the Lesion outbreak rate (Table 3, tobacco, 100 ppm) is reported as 82%.

On to `CCOC(=O)[C@H](C)NC(=O)[C@@H](N)CC(C)C` [Compound 10] (H-Leu-Ala-OEt), for which the Lesion outbreak rate (Table 3, tobacco, 1 ppm) is listed as 80%; the Lesion outbreak rate (Table 3, tobacco, 10 ppm) is listed as 73%; the Lesion outbreak rate (Table 3, tobacco, 100 ppm) was 87%.

Take `CC(C)C[C@H](N)C(=O)N[C@@H](C)C(=O)O` [Compound 11] (H-Leu-Ala-OH): the Lesion outbreak rate is 30% (Table 3, tobacco, 1 ppm); 46% (Table 3, tobacco, 10 ppm); 21% (Table 3, tobacco, 100 ppm).

With `COC(=O)[C@H](C)NC(=O)[C@@H](NC(=O)OC(C)(C)C)C(C)C` [Compound 12] (Boc-Val-Ala-OMe), the Lesion outbreak rate is, setting by setting: (Table 6, tobacco, 1 ppm) 45%; (Table 6, tobacco, 10 ppm) 33%; (Table 6, tobacco, 100 ppm) 25%.

Take `COC(=O)[C@H](C)NC(=O)[C@H](C)NC(=O)OC(C)(C)C` [Compound 13] (Boc-Ala-Ala-OMe): the Lesion outbreak rate is on record as 100% (Table 6, tobacco, 1 ppm); 100% (Table 6, tobacco, 10 ppm); 28% (Table 6, tobacco, 100 ppm).

In the case of `COC(=O)[C@H](Cc1c[nH]c2ccccc12)NC(=O)CNC(=O)OC(C)(C)C` [Compound 16] (Boc-Gly-Trp-OMe), the Lesion outbreak rate runs as follows: (Table 6, tobacco, 1 ppm) 25%; (Table 6, tobacco, 10 ppm) 25%; (Table 6, tobacco, 100 ppm) 53%.

Regarding `COC(=O)[C@H](Cc1c[nH]c2ccccc12)NC(=O)[C@@H](NC(=O)OC(C)(C)C)C(C)C` [Compound 17] (Boc-Val-Trp-OMe), the Lesion outbreak rate was 100% (Table 6, tobacco, 1 ppm); 25% (Table 6, tobacco, 10 ppm); 100% (Table 6, tobacco, 100 ppm).

As for `COC(=O)CNC(=O)CNC(=O)OC(C)(C)C` [Compound 18] (Boc-Gly-Gly-OMe), the Lesion outbreak rate by setting is: (Table 6, tobacco, 1 ppm) 80%; (Table 6, tobacco, 10 ppm) 75%; (Table 6, tobacco, 100 ppm) 68%.

In the case of `COC(=O)[C@@H]1CCCN1C(=O)[C@H](Cc1ccccc1)NC(=O)OC(C)(C)C` [Compound 19] (Boc-Phe-Pro-OMe), the Lesion outbreak rate reads like this: (Table 6, tobacco, 1 ppm) 49%; (Table 6, tobacco, 10 ppm) 42%; (Table 6, tobacco, 100 ppm) 50%.

Regarding `COC(=O)[C@@H]1CCCN1C(=O)[C@H](C)NC(=O)OC(C)(C)C` [Compound 20] (Boc-Ala-Pro-OMe), the Lesion outbreak rate runs as follows: (Table 6, tobacco, 1 ppm) 56%; (Table 6, tobacco, 10 ppm) 63%; (Table 6, tobacco, 100 ppm) 51%.

For the molecule `COC(=O)[C@@H]1CCCN1C(=O)[C@@H](NC(=O)OC(C)(C)C)C(C)C` [Compound 21] (Boc-Val-Pro-OMe), the Lesion outbreak rate turned out to be 37% (Table 6, tobacco, 1 ppm); 46% (Table 6, tobacco, 10 ppm); 35% (Table 6, tobacco, 100 ppm).

Regarding `COC(=O)[C@@H]1CCCN1C(=O)[C@H](CC(C)C)NC(=O)OC(C)(C)C` [Compound 22] (Boc-Leu-Pro-OMe), the Lesion outbreak rate is, setting by setting: (Table 6, tobacco, 1 ppm) 35%; (Table 6, tobacco, 10 ppm) 24%; (Table 6, tobacco, 100 ppm) 46%.
